Where two headings read alike, the source gives them in different places. One block for each molecule: values may come before it. Bridge positions count the residues as written; N and C are the ends. Peptide text beside a SMILES is read from it.
System: Escherichia coli W3110
Assay type: cell-based
Conditions: for Ec W3110 MIC MH: E. coli W3110, MH medium; for Ec W3110 MIC RPMI: E. coli W3110, RPMI medium

SMILES: CC[C@H](C)[C@@H]1NC(=O)[C@H](CCCNC(=N)N)NC(=O)[C@H](C(C)C)NC(=O)[C@H](CCCNC(=N)N)NC(=O)[C@@H](N)CSSC[C@@H](C(=O)O)NC(=O)[C@H](CCC(N)=O)NC(=O)[C@H](C(C)C)NC(=O)[C@H](CCC(N)=O)NC(=O)[C@H](CC(C)C)NC(=O)[C@H](CCCNC(=N)N)NC(=O)[C@H](C(C)C)NC(=O)[C@H]([C@@H](C)O)NC(=O)CNC(=O)[C@H](CO)NC(=O)CNC(=O)[C@H](CC(=O)O)NC(=O)[C@H](CC(N)=O)NC(=O)[C@H](C(C)C)NC(=O)[C@H](CC(N)=O)NC1=O [SyRC-10] (H-CRVRINVNDGSGTVRLQVQC-OH; disulfide 1-20)
W3110 MIC (W3110): >256 µg/mL

SMILES: CC[C@H](C)[C@@H]1NC(=O)[C@H](CC(N)=O)NC(=O)[C@H](C(C)C)NC(=O)[C@H](CCCCN)NC(=O)[C@H]([C@@H](C)CC)NC(=O)[C@H](CCCNC(=N)N)NC(=O)[C@@H](N)CSSC[C@@H](C(=O)O)NC(=O)[C@H](CCC(=O)O)NC(=O)[C@H](CC(C)C)NC(=O)[C@H](CCC(=O)O)NC(=O)[C@H](CC(C)C)NC(=O)[C@H](CCCNC(=N)N)NC(=O)[C@H](CC(C)C)NC(=O)[C@H](CCCNC(=N)N)NC(=O)[C@H](CCCNC(=N)N)NC(=O)[C@H](CO)NC(=O)[C@H](CCCNC(=N)N)NC(=O)[C@H](CC(=O)O)NC(=O)[C@H](CC(=O)O)NC1=O [SyRC-8] (H-CRIKVNIDDRSRRLRLELEC-OH; disulfide 1-20)
W3110 MIC (W3110): >256 µg/mL

SMILES: CC[C@H](C)[C@@H]1NC(=O)[C@H](CC(=O)O)NC(=O)[C@H]([C@@H](C)CC)NC(=O)[C@H](CCCNC(=N)N)NC(=O)[C@H](C(C)C)NC(=O)[C@H](CCCNC(=N)N)NC(=O)[C@@H](N)CSSC[C@@H](C(=O)O)NC(=O)[C@H](CCC(N)=O)NC(=O)[C@H](CC(C)C)NC(=O)[C@H](CCC(N)=O)NC(=O)[C@H](CC(C)C)NC(=O)[C@H](CCCCN)NC(=O)[C@H](CC(C)C)NC(=O)[C@H](CCCNC(=N)N)NC(=O)[C@H](CCCNC(=N)N)NC(=O)[C@H](CCCNC(=N)N)NC(=O)CNC(=O)[C@H](CC(N)=O)NC(=O)[C@H](CC(N)=O)NC1=O [SyRC-5] (H-CRVRIDINNGRRRLKLQLQC-OH; disulfide 1-20)
W3110 MIC (W3110): >256 µg/mL

SMILES: CC[C@H](C)[C@@H]1NC(=O)[C@H](CCCCN)NC(=O)[C@H](CC(C)C)NC(=O)[C@H](CCCNC(=N)N)NC(=O)CNC(=O)CNC(=O)[C@H](CCCNC(=N)N)NC(=O)[C@H](CC(N)=O)NC(=O)[C@H](CC(N)=O)NC(=O)[C@H](C(C)C)NC(=O)[C@H](CCCNC(=N)N)NC(=O)[C@H](C(C)C)NC(=O)[C@H]([C@@H](C)O)NC(=O)[C@H](C(C)C)NC(=O)[C@@H](N)CSSC[C@@H](C(=O)O)NC(=O)[C@H](C(C)C)NC(=O)[C@H](CCC(N)=O)NC(=O)[C@H](CC(C)C)NC(=O)[C@H]([C@@H](C)O)NC1=O [SyRA-14] (H-CVTVRVNNRGGRLKITLQVC-OH; disulfide 1-20)
W3110 MIC (W3110): >256 µg/mL

SMILES: CC[C@H](C)[C@@H]1NC(=O)[C@H](CC(N)=O)NC(=O)[C@H](C(C)C)NC(=O)[C@H](CCCCN)NC(=O)[C@H]([C@@H](C)CC)NC(=O)[C@H](CCCNC(=N)N)NC(=O)[C@@H](N)CSSC[C@@H](C(=O)O)NC(=O)[C@H](CCC(=O)O)NC(=O)[C@H](CC(C)C)NC(=O)[C@H](CCC(=O)O)NC(=O)[C@H](CC(C)C)NC(=O)[C@H](CCCCN)NC(=O)[C@H](C(C)C)NC(=O)[C@H]([C@@H](C)O)NC(=O)[C@H](CCCNC(=N)N)NC(=O)[C@H](CCCNC(=N)N)NC(=O)[C@H](CCCNC(=N)N)NC(=O)[C@H](CC(N)=O)NC(=O)[C@H](CC(N)=O)NC1=O [SyRC-6] (H-CRIKVNINNRRRTVKLELEC-OH; disulfide 1-20)
W3110 MIC (W3110): >256 µg/mL

SMILES: CC[C@H](C)[C@@H]1NC(=O)[C@H]([C@@H](C)O)NC(=O)[C@H](CC(C)C)NC(=O)[C@@H](N)CSSC[C@@H](C(=O)O)NC(=O)[C@H](C(C)C)NC(=O)[C@H](CCC(=O)O)NC(=O)[C@H](C(C)C)NC(=O)[C@H](CO)NC(=O)[C@H](C(C)C)NC(=O)[C@H](CCCCN)NC(=O)[C@H](C(C)C)NC(=O)[C@H](CCCNC(=N)N)NC(=O)[C@H](CO)NC(=O)[C@H](CCCNC(=N)N)NC(=O)[C@H](CCCNC(=N)N)NC(=O)[C@H](CC(=O)O)NC(=O)[C@H](CC(=O)O)NC(=O)[C@H](CC(C)C)NC(=O)[C@H](CCCNC(=N)N)NC1=O [SyRA-1] (H-CLTIRLDDRRSRVKVSVEVC-OH; disulfide 1-20)
W3110 MIC (W3110): >256 µg/mL

SMILES: CC[C@H](C)[C@@H]1NC(=O)[C@H](CCCNC(=N)N)NC(=O)[C@@H](N)CSSC[C@@H](C(=O)O)NC(=O)[C@H](CCC(N)=O)NC(=O)[C@H](C(C)C)NC(=O)[C@H](CCC(=O)O)NC(=O)[C@H](CC(C)C)NC(=O)[C@H](CCCNC(=N)N)NC(=O)[C@H](CC(C)C)NC(=O)[C@H](CCCNC(=N)N)NC(=O)[C@H](CCCNC(=N)N)NC(=O)CNC(=O)[C@H](CCCNC(=N)N)NC(=O)[C@H](CC(N)=O)NC(=O)[C@H](CC(N)=O)NC(=O)[C@H](C(C)C)NC(=O)[C@H](CC(N)=O)NC(=O)[C@H](C(C)C)NC(=O)[C@H](CCCCN)NC1=O [SySA-4] (H-CRIKVNVNNRGRRLRLEVQC-OH; disulfide 1-20; N-terminus and C-terminus assumed)
Ec W3110 MIC MH: 256 µg/mL | Ec W3110 MIC RPMI: 128 µg/mL | W3110 MIC RPMI (W3110): 128 µg/mL

SMILES: CC[C@H](C)[C@@H]1NC(=O)[C@H](CCCNC(=N)N)NC(=O)[C@@H](N)CSSC[C@@H](C(=O)O)NC(=O)[C@H](CCC(N)=O)NC(=O)[C@H](C(C)C)NC(=O)[C@H](CCC(N)=O)NC(=O)[C@H](CC(C)C)NC(=O)[C@H](CCCNC(=N)N)NC(=O)[C@H](C(C)C)NC(=O)[C@H](CCCNC(=N)N)NC(=O)[C@H](CCCNC(=N)N)NC(=O)[C@H](CCCNC(=N)N)NC(=O)[C@H](CCCNC(=N)N)NC(=O)[C@H](CC(N)=O)NC(=O)[C@H](CC(N)=O)NC(=O)[C@H](C(C)C)NC(=O)[C@H](CC(=O)O)NC(=O)[C@H](C(C)C)NC(=O)[C@H](CCCCN)NC1=O [SySA-1] (H-CRIKVDVNNRRRRVRLQVQC-OH; disulfide 1-20; N-terminus and C-terminus assumed)
Ec W3110 MIC MH: 128 µg/mL | Ec W3110 MIC RPMI: 64 µg/mL | W3110 MIC MH (E. coli W3110, standard Mueller-Hinton broth, 37°C, 18-24 h, median of n=3): 128 µg/mL | W3110 MIC RPMI (W3110): 64 µg/mL

Other lines, results leading:

Ec W3110 MIC MH: 32 µg/mL | Ec W3110 MIC RPMI: 8 µg/mL | W3110 MIC MH (W3110): 32 µg/mL | W3110 MIC RPMI (W3110): 8 µg/mL
SMILES: CC[C@H](C)[C@@H]1NC(=O)[C@H](CCCNC(=N)N)NC(=O)[C@H](CC(C)C)NC(=O)CNC(=O)[C@H](CCCNC(=N)N)NC(=O)[C@H](CCCNC(=N)N)NC(=O)[C@H](CCCNC(=N)N)NC(=O)[C@H](CC(N)=O)NC(=O)[C@H](CC(N)=O)NC(=O)[C@H](CC(C)C)NC(=O)[C@H](CCCNC(=N)N)NC(=O)[C@H](C(C)C)NC(=O)[C@H](CCCNC(=N)N)NC(=O)[C@H](CC(C)C)NC(=O)[C@@H](N)CSSC[C@@H](C(=O)O)NC(=O)[C@H](C(C)C)NC(=O)[C@H](CCC(N)=O)NC(=O)[C@H](CC(C)C)NC(=O)[C@H](CO)NC1=O [SySA-73] (H-CLRVRLNNRRRGLRISLQVC-OH; disulfide 1-20; N-terminus and C-terminus assumed)

Ec W3110 MIC MH: 64 µg/mL | Ec W3110 MIC RPMI: 32 µg/mL | W3110 MIC MH (W3110): 64 µg/mL | W3110 MIC RPMI (W3110): 32 µg/mL
SMILES: CC(C)C[C@@H]1NC(=O)CNC(=O)[C@H](CCCNC(=N)N)NC(=O)[C@H](CCCNC(=N)N)NC(=O)[C@H](CCCNC(=N)N)NC(=O)[C@H](CC(N)=O)NC(=O)[C@H](CC(N)=O)NC(=O)[C@H](CC(C)C)NC(=O)[C@H](CCCNC(=N)N)NC(=O)[C@H](C(C)C)NC(=O)[C@H](CCCNC(=N)N)NC(=O)[C@H](CC(C)C)NC(=O)[C@@H](N)CSSC[C@@H](C(=O)O)NC(=O)[C@H](C(C)C)NC(=O)[C@H](CCC(N)=O)NC(=O)[C@H](C(C)C)NC(=O)[C@H](CO)NC(=O)[C@H](C(C)C)NC(=O)[C@H](CCCCN)NC1=O [SySA-17] (H-CLRVRLNNRRRGLKVSVQVC-OH; disulfide 1-20; N-terminus and C-terminus assumed)

Ec W3110 MIC MH: 64 µg/mL | Ec W3110 MIC RPMI: 16 µg/mL | W3110 MIC MH (W3110): 64 µg/mL | W3110 MIC RPMI (W3110): 16 µg/mL
SMILES: CC[C@H](C)[C@@H]1NC(=O)[C@H](CCCCN)NC(=O)[C@H](C(C)C)NC(=O)[C@H](CCCNC(=N)N)NC(=O)[C@H](CCCNC(=N)N)NC(=O)[C@H](CCCNC(=N)N)NC(=O)[C@H](CCCNC(=N)N)NC(=O)[C@H](CC(N)=O)NC(=O)[C@H](CC(N)=O)NC(=O)[C@H](CC(C)C)NC(=O)[C@H](CCCNC(=N)N)NC(=O)[C@H](C(C)C)NC(=O)[C@H](CCCNC(=N)N)NC(=O)[C@H](C(C)C)NC(=O)[C@@H](N)CSSC[C@@H](C(=O)O)NC(=O)[C@H](C(C)C)NC(=O)[C@H](CCC(=O)O)NC(=O)[C@H](C(C)C)NC(=O)[C@H](CO)NC1=O [SySA-65] (H-CVRVRLNNRRRRVKISVEVC-OH; disulfide 1-20; N-terminus and C-terminus assumed)

Ec W3110 MIC MH: 64 µg/mL | Ec W3110 MIC RPMI: 32 µg/mL | W3110 MIC MH (W3110): 64 µg/mL | W3110 MIC RPMI (W3110): 32 µg/mL
SMILES: CC(C)C[C@@H]1NC(=O)[C@H](CCCNC(=N)N)NC(=O)[C@H](CCCNC(=N)N)NC(=O)[C@H](CCCNC(=N)N)NC(=O)CNC(=O)[C@H](CC(N)=O)NC(=O)[C@H](CC(N)=O)NC(=O)[C@H](C(C)C)NC(=O)[C@H](CCCNC(=N)N)NC(=O)[C@H](C(C)C)NC(=O)[C@H](CCCNC(=N)N)NC(=O)[C@H](C(C)C)NC(=O)[C@@H](N)CSSC[C@@H](C(=O)O)NC(=O)[C@H](C(C)C)NC(=O)[C@H](CCC(N)=O)NC(=O)[C@H](CC(C)C)NC(=O)[C@H](CO)NC(=O)[C@H](C(C)C)NC(=O)[C@H](CCCCN)NC1=O [SySA-79] (H-CVRVRVNNGRRRLKVSLQVC-OH; disulfide 1-20; N-terminus and C-terminus assumed)

Ec W3110 MIC MH: 64 µg/mL | Ec W3110 MIC RPMI: 32 µg/mL | W3110 MIC MH (W3110): 64 µg/mL | W3110 MIC RPMI (W3110): 32 µg/mL
SMILES: CC(C)C[C@@H]1NC(=O)[C@H](CCCNC(=N)N)NC(=O)[C@H](C(C)C)NC(=O)[C@H]([C@@H](C)O)NC(=O)[C@H](CC(C)C)NC(=O)[C@@H](N)CSSC[C@@H](C(=O)O)NC(=O)[C@H](C(C)C)NC(=O)[C@H](CCC(N)=O)NC(=O)[C@H](C(C)C)NC(=O)[C@H](CO)NC(=O)[C@H](C(C)C)NC(=O)[C@H](CCCCN)NC(=O)[C@H](C(C)C)NC(=O)CNC(=O)[C@H](CCCNC(=N)N)NC(=O)[C@H](CCCNC(=N)N)NC(=O)[C@H](CCCNC(=N)N)NC(=O)[C@H](CC(N)=O)NC(=O)[C@H](CC(N)=O)NC1=O [SySA-81] (H-CLTVRLNNRRRGVKVSVQVC-OH; disulfide 1-20; N-terminus and C-terminus assumed)
